{
  "source": "patent US12297168B2",
  "about": "“Compounds useful for treating liver diseases” (ABIONYX PHARMA SA, priority 2019, dated 2025)",
  "origin": "cited, not measured here",
  "system": "NASH resolution without worsening of fibrosis",
  "settings": "Phase 3 trial, adults with NASH and fibrosis (interim analysis, RESOLVE-IT)",
  "data": [
    {"compound": "CSc1ccc(C(=O)/C=C/c2cc(C)c(OC(C)(C)C(=O)O)c(C)c2)cc1", "note": "[elafibranor]", "values": [
      {"measurement": "effect on the primary endpoint of NASH resolution without worsening of fibrosis", "value": "did not demonstrate a statistically significant effect"}
    ]}
  ]
}
